Results: patent US10221169B2, “Substituted aminothiazoles for the treatment of tuberculosis” (THE BROAD INSTITUTE, INC., priority 2013, dated 2019)
In brackets after ≈: the same amount, converted by molar mass.

Tests used:
Replicating Mtb = experiment: microbe, parasite or virus in culture; format: cell-based, M. tuberculosis H37Rv; conditions: log-phase Mtb; for IC90: Mycobacterium tuberculosis, 72 h, read-out: Replicating Mtb Log MIC IC90 (uM, GFP) (converted)
[1] = test system: Non-replicating Mtb Carbon-starved; experiment: Non-replicating carbon-starved Mtb IC99 by luciferase; format: cell-based, M. tuberculosis H37Rv; conditions: Mycobacterium tuberculosis, luciferase readout, 99% killing
M. tuberculosis = experiment: MIC of control anti-tuberculosis antibiotics; format: cell-based; conditions: Mycobacterium tuberculosis, MIC used as reference for 10× MIC

Row | SMILES | IC90 (Replicating Mtb) [µM] | MIC [1] [µM] | MIC (M. tuberculosis) [µg/mL] | Replicating Mtb Log MIC IC90 (uM, GFP) (Replicating Mtb)
1 | Cc1cccnc1Nc1nc(-c2ccccn2)c(Br)s1 [Compound 17, 5-bromo-N-(3-methylpyridin-2-yl)-4-(pyridin-2-yl)thiazol-2-amine] | < 1 | < 16 |  | 
2 | C/C(=N\Nc1nc(C)c(C)s1)c1ccc(Br)cc1 [Compound 15] | 62 | 16 (≈ 5.19 µg/mL) |  | 
3 | Clc1ccc(Nc2nc(-c3ccccn3)cs2)nc1 [Compound 2] | 2 | 2 (≈ 0.578 µg/mL) |  | 
4 | Cc1cccnc1Nc1nc(-c2cccnc2)cs1 [Compound 10] | 125 |  |  | 
5 | CC(C)(C)OC(=O)COc1cccnc1Nc1nc(-c2ccccn2)cs1 [Compound 20, tert-butyl 2-((2-((4-(pyridin-2-yl)thiazol-2-yl)amino)pyridin-3-yl)oxy)acetate] |  | 4 (≈ 1.54 µg/mL) |  | 
6 | CO[C@H]1/C=C/O[C@@]2(C)Oc3c(C)c(O)c4c(O)c(c(/C=N/N5CCN(C)CC5)c(O)c4c3C2=O)NC(=O)/C(C)=C\C=C\[C@H](C)[C@H](O)[C@@H](C)[C@@H](O)[C@@H](C)[C@H](OC(C)=O)[C@@H]1C [rifampin] |  |  | 0.01 | 
7 | c1ccc(Nc2nc(-c3ccccn3)cs2)nc1 [Compound 13] | 8 |  |  | 
8 | COc1ccc(Nc2nc(-c3ccccn3)cs2)c(OC)c1 [Compound 3] | 8 |  |  | 
9 | Cc1ccnc(Nc2nc(-c3ccccn3)cs2)c1 [Compound 14] | 16 |  |  | 
10 | COc1ccc(CCNc2nc(-c3ccccn3)cs2)cc1OC [Compound 5] | 62 | 8 (≈ 2.73 µg/mL) |  | 
11 | Cc1ccc(-c2csc(Nc3ncccc3C)n2)cc1 [Compound 12] | 125 |  |  | 
12 | CCOC(=O)c1sc(Nc2ncccc2C)nc1-c1ccccn1 [Compound 18, ethyl 2-((3-methylpyridin-2-yl)amino)-4-(pyridin-2-yl)thiazole-5-carboxylate] | 4 | 8 (≈ 2.72 µg/mL) |  | 
13 | Cc1cccnc1Nc1nc(-c2ccccn2)cs1 [Compound 1, N-(3-methylpyridin-2-yl)-4-(pyridin-2-yl)thiazol-2-amine] | 0.5 | 1 (≈ 0.268 µg/mL) |  | 
14 | O=C(O)COc1cccnc1Nc1nc(-c2ccccn2)cs1 [Compound 21, 2-((2-((4-(pyridin-2-yl)thiazol-2-yl)amtno)pyridin-3-yl)oxy)acetic acid] | 125 | > 125 |  | 
15 | CN(C)c1ccc(Nc2nc(-c3ccccn3)cs2)nc1 [Compound 6] | 125 | 8 (≈ 2.38 µg/mL) |  | 
16 | Cc1cccnc1Nc1nc(-c2ccncc2)cs1 [Compound 11] |  |  |  | None detected
17 | FC(F)(F)c1ccccc1Nc1nc(-c2ccccn2)cs1 [Compound 4] | 62 |  |  | 
18 | Cc1cccnc1Nc1nc(-c2ccccn2)c(CN2CCOCC2)s1 [Compound 19, N-(3-methylpyridin-2-yl)-5-(morpholinomethyl)-4-(pyridin-2-yl)thiazol-2-amine] | 16 | 32 (≈ 11.8 µg/mL) |  | 
19 | Cc1ccccc1Nc1nc(-c2ccccn2)cs1 [Compound 9] | 62 | 8 (≈ 2.14 µg/mL) |  | 
